This note sets out measurements from patent publication US7414023B2, “Peptide ligands for prostate specific antigen” (Licentia Ltd., priority 2000, dated 2008).

Bridge positions count the residues as written; N and C are the ends. Peptide text beside a SMILES is read from it.

For experiment [1], the target named is T1, PSA (Homo sapiens, UniProt P07288). Description: Inhibition of GST-peptide binding to PSA by chemically synthesized peptides. Further details: PSA was purified from human seminal fluid as described previously (3); from tissue. The conditions noted are these: synthetic peptide GACVAYCIEHHCWTCGA in 20-fold molar excess. Here is the method: Peptides A1 and C4 were synthesized by standard solid phase Merrifield peptide synthesis using fmoc-chemistry. The peptides were assayed for binding with PSA by studying the ability of the synthetic peptide to inhibit the binding of the corresponding GST peptide with PSA. Synthetic peptide (0-333 nM) and the corresponding GST peptide (167 nM) were incubated with PSA captured by MAb 5E4 for 1 h. After this, the wells were washed, after which Eu^3+-labeled anti GST antibody was added. After further incubation and washing the bound fluorescence was measured as described above.
T1 sequence (P07288 25-261): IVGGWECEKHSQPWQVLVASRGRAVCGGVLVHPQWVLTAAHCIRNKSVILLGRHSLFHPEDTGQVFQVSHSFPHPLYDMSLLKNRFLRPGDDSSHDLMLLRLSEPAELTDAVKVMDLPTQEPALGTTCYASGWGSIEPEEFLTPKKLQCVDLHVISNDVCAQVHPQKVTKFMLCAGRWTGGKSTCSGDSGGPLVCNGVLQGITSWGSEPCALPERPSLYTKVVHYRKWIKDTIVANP
PSA had been captured by anti-PSA MAb in the microtitration wells. The binding was measured by IFMA.

In experiment [2] the target is T1, PSA. Description: Proteolytic cleavage of IGF-BP-3 by PSA, IGF-BP-3 IFMA. The experiment is classed as biochemical. Also noted: PSA was purified from human seminal fluid as described previously (3); from tissue; host or cells: human seminal fluid. The conditions noted are these: PSA 5 μg/mL, 100-fold molar excess of synthetic peptide, IGF-BP-3 70 ng/mL, 16 h at 37° C.; PSA alone 30%. Here is the method: The extent of the cleavage of the substrate was quantitated by monitoring the decrease in IGF-BP-3 immunoreactivity due to proteolytic cleavage of it. PSA (5 μg/mL) was incubated with IGF-BP-3 (70 ng/mL) for 16 h at 37° C. with 100-fold molar excess of peptides to PSA and measured for IGF-BP3 immunoreactivity by IFMA as described (33). As control, the peptide was also added to the reaction mixture containing PSA and IGF-BP3 just before starting the immunoassay to quantify the possible interference of the peptide in the IFMA for IGF-BP-3.
In the experiments, PSA (5 μg/mL) in TBS buffer, pH 7.8 alone or with 100-fold molar excess of peptide was incubated with IGF-BP-3 (70 ng/mL) for 16 h at 37° C., after which the concentration of intact IGF-BP-3 was determined by IFMA.

Turning to `CC[C@H](C)[C@@H]1NC(=O)[C@@H]2CSSC[C@H](NC(=O)[C@H](Cc3c[nH]cn3)NC(=O)[C@H](Cc3c[nH]cn3)NC(=O)[C@H](CCC(=O)O)NC1=O)C(=O)N[C@@H](Cc1c[nH]c3ccccc13)C(=O)N[C@@H]([C@@H](C)O)C(=O)N[C@H](C(=O)O)CSSC[C@H](N)C(=O)N[C@@H](C(C)C)C(=O)N[C@@H](C)C(=O)N[C@@H](Cc1ccc(O)cc1)C(=O)N2` [Peptide C-4] (H-CVAYCIEHHCWTC-OH; disulfide 1-13, 5-10; N-terminus and C-terminus assumed), the “inhibition of the binding of the corresponding GST-peptide to PSA” value on PSA [1] is “about 70%”. The “cleavage of IGF-BP-3 by PSA in the presence of peptide” value at PSA [2] was “about 70%”.
